Experimental data published in PubChem BioAssay AID602217 (Sanford-Burnham Center for Chemical Genomics, 2012).
Active and inactive are the calls of the source.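 Rule for the calls: active = IC50 at or below a set limit; inactive = the rest.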

Each compound was assayed on HL-1 cardiomyocytes, 2-deoxyglucose injury, ATPLite luminescence, 2 h (assay: 2-DG-induced HL-1 ATP loss suppression – cell-based, ATPLite luminescence, dose response (AID 602217);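 note: cells kept in glucose-free DMEM during the 2-deoxyglucose injury; potency of protection where actives preserve ATP signal against 2-deoxyglucose stress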).
With `COc1cc(C(=O)N/N=C/c2sc(N3CCOCC3)nc2-c2ccccc2)cc(OC)c1OC` the IC50 was 22.6 µM (inactive).
`CNC(=O)c1ccc(-c2sc3nc(N4CCOCC4)c4c(c3c2N)CC(C)(C)OC4)o1` was tested, and the IC50 was 46.1 µM (inactive).
With `COc1ccc(-c2cc(C(=O)N(C)Cc3nc4ccccc4c(=O)[nH]3)c3ccccc3n2)cc1OC` the IC50 was 21.9 µM (inactive).
With `COc1cc(-c2cc(NC(C)=O)c3ncc(-c4ccc(F)cc4)n3c2)cc(OC)c1OC` the IC50 was > 79 µM (inactive).
`COc1ccc(C(=O)Nc2cccc(/C(C)=N/NC(=O)c3ccc([N+](=O)[O-])c(C)c3)c2)cc1OC` showed an IC50 of 5.18 µM.
For `CC(C)(C)OC(=O)N1CCC(NC(=O)c2nc[nH]c2C(=O)NCC(=O)OCc2ccccc2)CC1`, the IC50 was 25.8 µM (inactive).
For `COc1ccc2[nH]c(=O)c(CN(Cc3cccnc3)S(=O)(=O)c3ccccc3F)cc2c1`, the IC50 was 18.2 µM.
`C[C@@H]1CN([C@@H](C)CO)C(=O)c2cc(NC(=O)Nc3ccccc3)ccc2O[C@H]1CN(C)C(=O)Nc1cccc2ccccc12` was tested, and the IC50 was > 79 µM (inactive).
`CCN(CC)C(=O)c1[nH]cnc1C(=O)NCC(=O)OCc1ccccc1` was tested, and the IC50 was 69.9 µM (inactive).
Compound `CCOc1ccc(C(C(=O)NC2CCCC2)N(C(=O)c2snc(C(N)=O)c2N)c2cccc(O)c2)cc1` (stereo unspecified) has an IC50 of 13.1 µM.
For `COc1cc(/C=C(\C#N)c2nc3ccc(C)cc3[nH]2)c([N+](=O)[O-])cc1OC`, the IC50 was > 79 µM (inactive).
`COc1ccccc1NC(=O)c1cc(-c2cc(OC)c(OC)c(OC)c2)nc2ccccc12` gave an IC50 of 14.3 µM.
With `COc1ccc(CCNC(=O)C(=O)NCC2CCCN2S(=O)(=O)c2ccccc2)cc1OC` (stereo unspecified) the IC50 was 45.9 µM (inactive).
`COc1ccc(-c2cc3nc(-c4ccccc4)cc(N4CCN(C(C)=O)CC4)n3n2)cc1` was tested, and the IC50 was 43.7 µM (inactive).
`COc1ccc(-c2nn(-c3ccccc3)cc2C(=O)Nc2nccs2)cc1` was tested, and the IC50 was 53.5 µM (inactive).
With `COc1cc(-c2cc(C(=O)NCc3ccco3)c3ccccc3n2)cc(OC)c1OC` the IC50 was 31.6 µM (inactive).
`CC(=O)Nc1cccc(-c2cc(NC=O)c3ncc(-c4ccc(C(C)=O)cc4)n3c2)c1` was tested, and the IC50 was 23.1 µM (inactive).
`COc1ccc(-c2cc(C(=O)Nc3ccccc3N3CCOCC3)c3ccccc3n2)cc1OC` was tested, and the IC50 was > 79 µM (inactive).
With `CC(C)c1ccccc1NC(=O)COC(=O)c1c2c(nc3ccccc13)CCN(Cc1ccccc1)C2` the IC50 was > 79 µM (inactive).
In the case of `COc1ccc(Nc2nnc(SCc3cc(=O)n4ccsc4n3)s2)cc1`, the IC50 is reported as 0.26 µM.
`CCOc1cc(-c2cc(-c3ccc(N)cc3)nc(N)c2C#N)ccc1O` was tested, and the IC50 was > 79 µM (inactive).
`NC(=O)c1nsc(C(=O)N(c2ccccc2)C(C(=O)NCc2ccc(F)cc2)c2ccc(O)cc2)c1N` (stereo unspecified) showed an IC50 of 19.8 µM.
In the case of `COc1ccc(C(C(=O)NCc2ccccc2)N(Cc2ccco2)C(=O)c2snc(C(N)=O)c2N)cc1` (stereo unspecified), the IC50 is reported as 39.5 µM (inactive).
For `CCOC(=O)c1ccc(NC(=O)c2nc[nH]c2C(=O)NCCCCCNC(=O)OC(C)(C)C)cc1`, the IC50 was > 79 µM (inactive).
`CC(OC(=O)c1cc(-c2cccnc2)nc2ccccc12)C(=O)Nc1ccc2ccccc2c1` (stereo unspecified) was tested, and the IC50 was > 79 µM (inactive).
For `O=CNc1cc(-c2ccc(C(=O)NC3CC3)cc2)cn2c(-c3ccccc3)cnc12`, the IC50 was 40.9 µM (inactive).
For `COc1ccc(CCNc2nc(-c3cccnc3)nc3ccccc23)cc1OC`, the IC50 was 55 µM (inactive).
Work on `CCCNC(=O)c1ccc(N2CCC3(CC2)CC(c2ccccc2)=NO3)c(NC(=O)c2ccco2)c1` yielded an IC50 of 10.3 µM.
Compound `CCn1c(O)c(/C=N/N=C/c2ccccc2)c2ccc(C3=NNC(=O)CC3)cc21` has an IC50 of 18.1 µM.
`Cn1c(=O)c2[nH]c(NN=Cc3ccc(Br)cc3)nc2n(C)c1=O` showed an IC50 of 10.2 µM.
`COc1ccc(-c2ccc3c(c2)S(=O)(=O)c2cccc(C(=O)N4CCN(c5c(Cl)cncc5Cl)CC4)c2C3=O)cc1OC` was tested, and the IC50 was 13.7 µM.
In the case of `O=C(COC(=O)c1c2c(nc3ccccc13)/C(=C/c1cccc([N+](=O)[O-])c1)CCC2)NC1CCS(=O)(=O)C1` (stereo unspecified), the IC50 is reported as > 79 µM (inactive).
`CC(=O)c1ccc(-c2cnc3c(NC=O)cc(-c4ccc(C(=O)NC5CC5)cc4)cn23)cc1` was tested, and the IC50 was 20 µM (inactive).
For `Cc1[nH]c2ccccc2c1/C=N/NC(=O)c1cc(-c2ccccc2)n[nH]1`, the IC50 was 22.8 µM (inactive).
Work on `CC(=O)Nc1cc(-c2ccc(C(=O)NC3CC3)cc2)cn2c(-c3cccc(C(C)=O)c3)cnc12` yielded an IC50 of 12.7 µM.
`Cn1c(=O)c2[nH]c(NN=Cc3cccc(Br)c3)nc2n(C)c1=O` was tested, and the IC50 was 17.9 µM.
In the case of `COc1cc(/C=C/C(=O)Nc2ccc3nc4n(c(=O)c3c2)CCCC4)cc(OC)c1OC`, the IC50 is reported as 51.5 µM (inactive).
For `COc1cc(C(=O)N/N=C/c2ccc(OC(=O)c3ccccc3)c(OC)c2)ccc1O`, the IC50 was 37.6 µM (inactive).
With `CC(C)(C)OC(=O)CNC(=O)c1[nH]cnc1C(=O)NCC(=O)OCc1ccccc1` the IC50 was 21.7 µM (inactive).
In the case of `CCOC(=O)c1c(C)[nH]c(C)c1C(=O)COc1ncnc2cc([N+](=O)[O-])ccc12`, the IC50 is reported as > 79 µM (inactive).
For `CCOC(=O)C(Cc1ccc(NC(=O)/C(=C/c2ccc(OC(C)=O)cc2)NC(C)=O)cc1)N1C(=O)c2ccccc2C1=O` (stereo unspecified), the IC50 was 52.5 µM (inactive).
In the case of `Cc1cccc(NC(=O)c2nc[nH]c2C(=O)NCCCCNC(=O)c2[nH]cnc2C(=O)Nc2cccc(C)c2)c1`, the IC50 is reported as > 79 µM (inactive).
For `COC(=O)c1[nH]c2ccccc2c1NC(=O)CNC1CCCCC1`, the IC50 was 41 µM (inactive).
In the case of `COc1cc(-c2cc3nc(NCCc4ccc(S(N)(=O)=O)cc4)ccn3n2)cc(OC)c1OC`, the IC50 is reported as 48.7 µM (inactive).
`COc1ccc(-c2cc(-c3nnc(COC(=O)c4ccncc4)o3)c3ccccc3n2)cc1OC` was tested, and the IC50 was 24.7 µM (inactive).
In the case of `NC(=O)COc1ccc2oc(=O)cc(-c3cc4ccccc4o3)c2c1`, the IC50 is reported as > 79 µM (inactive).
In the case of `COc1ccc(-n2c(/C=C/c3ccc(O)c(OC)c3)nc3ccccc3c2=O)cc1`, the IC50 is reported as 21.3 µM (inactive).
`CC(=O)Nc1cccc(-c2cc(NC(C)=O)c3ncc(-c4ccccc4)n3c2)c1` was tested, and the IC50 was 30.9 µM (inactive).
For `COc1ccc(-c2csc(NC(=O)c3cccc(N4C(=O)CCC4=O)c3)n2)cc1OC`, the IC50 was 29.9 µM (inactive).
`Cc1ccc(C=NNc2nc3c([nH]2)c(=O)n(C)c(=O)n3C)cc1` was tested, and the IC50 was > 79 µM (inactive).
`COc1cc(C(=O)NCC(=O)N/N=C/c2ccc(-c3cccc([N+](=O)[O-])c3)o2)cc(OC)c1OC` was tested, and the IC50 was > 79 µM (inactive).
`NC(=O)c1nsc(C(=O)N(Cc2ccco2)C(C(=O)NCc2ccccc2)c2ccc(O)cc2)c1N` (stereo unspecified) was tested, and the IC50 was 32.2 µM (inactive).
With `NC(=O)c1nsc(C(=O)N(c2ccccc2F)C(C(=O)NCc2ccc(F)cc2)c2ccc(O)cc2)c1N` (stereo unspecified) the IC50 was 9.17 µM.
`C=CCOC(=O)C1=C[C@H](c2cn(C(C)=O)c3ccccc23)C[C@H](OCc2ccc(CO)cc2)O1` was tested, and the IC50 was > 79 µM (inactive).
`COc1cc(-c2cc(NC=O)c3ncc(-c4ccc(C(C)=O)cc4)n3c2)cc(OC)c1OC` was tested, and the IC50 was > 79 µM (inactive).
`Cc1cc(N)n(-c2nc(-c3cccnc3)nc3ccccc23)n1` was tested, and the IC50 was > 79 µM (inactive).
With `NC(=O)c1cc2ccccc2o/c1=N\NC(=O)c1ccc(F)cc1` the IC50 was > 79 µM (inactive).
With `O=C(CCCN1C(=O)c2cccc3cccc(c23)C1=O)N1CCN(c2ccccc2O)CC1` the IC50 was 27.4 µM (inactive).
In the case of `O=C(N/N=C/c1ccccn1)c1cc(-c2cccc3ccccc23)n[nH]1`, the IC50 is reported as 2.9 µM.
`COc1cc(-c2cc(C(=O)OCC(=O)NC3CC3)c3ccccc3n2)cc(OC)c1OC` was tested, and the IC50 was 47.4 µM (inactive).
With `CCOC(=O)C1CCN(c2cc3c(cc2NC(=O)c2ccc(OC)c(OC)c2)n(C)c(=O)n3C)CC1` the IC50 was > 79 µM (inactive).
With `Nc1c(C(=O)N/N=C/c2cccnc2)oc2nc(-c3ccco3)cc(-c3ccco3)c12` the IC50 was > 79 µM (inactive).
In the case of `COc1ccc(N(CC(=O)Nc2cccc(C(C)=O)c2)S(=O)(=O)c2ccc(NC(C)=O)cc2)cc1`, the IC50 is reported as > 79 µM (inactive).
For `COc1ccc(C(C(=O)NC2CCCC2)N(C(=O)c2snc(C(N)=O)c2N)c2cccc(O)c2)cc1` (stereo unspecified), the IC50 was 40.9 µM (inactive).
`CCOC(=O)c1c2c3c(cccc3n(C)c1=O)C(=O)c1ccccc1-2` was tested, and the IC50 was > 79 µM (inactive).
Compound `COc1cc(-c2cc(C(=O)Nc3cccc(C(C)=O)c3)c3ccccc3n2)cc(OC)c1OC` has an IC50 of 9.9 µM.
In the case of `CC(=O)Nc1ccc(C(=O)N/N=C/c2ccccc2OC(=O)c2ccc(Cl)cc2)cc1`, the IC50 is reported as > 79 µM (inactive).
`CC(C)=NNc1cnnc2ccc([N+](=O)[O-])cc12` was tested, and the IC50 was > 79 µM (inactive).
Compound `NC(=O)c1nsc(C(=O)N(c2ccccc2F)C(C(=O)NCc2ccccc2)c2ccc(O)cc2)c1N` (stereo unspecified) has an IC50 of 11 µM.
For `Brc1cc2c(cc1/C=N/Nc1nc(N3CCCC3)nc(N3CCOCC3)n1)OCO2`, the IC50 was > 79 µM (inactive).
In the case of `CCOC(=O)C1CCN(c2cc3c(cc2NC(=O)c2ccccc2)n(C)c(=O)n3C)CC1`, the IC50 is reported as > 79 µM (inactive).
In the case of `COc1cc(NC(=O)c2cc3nc(-c4ccccc4)cc(-c4ccccc4)n3n2)cc(OC)c1OC`, the IC50 is reported as 23.9 µM (inactive).
In the case of `Cc1cccc(NC(=O)c2oc3ccc(S(=O)(=O)N4CCOCC4)cc3c2C)c1C`, the IC50 is reported as 30.5 µM (inactive).
`COc1ccccc1CN(C(=O)CNC(=O)c1ccco1)C(C(=O)NCC1CCCO1)c1ccccc1` (stereo unspecified) was tested, and the IC50 was 71.3 µM (inactive).
For `COc1cc(Nc2nc3ccccc3n3nnnc23)cc(OC)c1OC`, the IC50 was > 79 µM (inactive).
With `Cc1ccc(NC(=O)c2nc[nH]c2C(=O)NCCCNC(=O)c2[nH]cnc2C(=O)Nc2ccc(C)cc2)cc1` the IC50 was > 79 µM (inactive).
In the case of `c1ccc(-c2nc(-n3ccnc3)nc(-n3ccnc3)n2)cc1`, the IC50 is reported as 38 µM (inactive).
In the case of `Cc1ccc(-c2csc(N3CCC[C@@H]3C(=O)NCCn3c(-c4ccncc4)nc4ccccc43)n2)cc1`, the IC50 is reported as > 79 µM (inactive).
In the case of `CC(=O)Nc1ccc(S(=O)(=O)N(Cc2cccnc2)Cc2cc3ccccc3[nH]c2=O)cc1`, the IC50 is reported as 30.8 µM (inactive).
In the case of `CCOc1ccc(C(C(=O)NCC2CCCO2)N(C(=O)c2snc(C(N)=O)c2N)c2ccccc2F)cc1` (stereo unspecified), the IC50 is reported as 44.3 µM (inactive).
In the case of `CCN(CC(=O)Nc1ccc(OC)cc1)C(=O)c1cc(-c2cccs2)nn1-c1ccccc1`, the IC50 is reported as 17.6 µM.
With `O=C(CN1CCN(c2ccccn2)CC1)Nc1ccc([N+](=O)[O-])cc1C(=O)Nc1ccccc1F` the IC50 was 17.9 µM.
`COc1ccc(-c2csc(NC(=O)CCCc3nc4ccccc4c(=O)[nH]3)n2)cc1OC` was tested, and the IC50 was > 79 µM (inactive).
With `COc1ccccc1N1CCN(C(=O)c2ccc3nc(-c4ccco4)c(-c4ccco4)nc3c2)CC1` the IC50 was 16.4 µM.
With `CC1Nc2ncnc(N3CCN(c4ccccc4)CC3)c2N(Cc2ccc(Cl)cc2)C1=O` (stereo unspecified) the IC50 was 1.95 µM.
With `COc1cc(C(=O)Nc2nc(-c3cccs3)cs2)cc(OC)c1OC` the IC50 was 16.9 µM.
